The conditions of the series: 14-membered ring, Cs2CO3, DMF, 85.0 °C.
The mark [1] stands for this setting: from O=C(NC[C@H](O)CCl)c1cnn2ccc(N3CC(F)(F)CC3c3cc(F)ccc3O)nc12, ether bond, 20.0 mM.

Read-outs that look alike come from different tables or passages of the source.

Take `O=C1NC[C@H](O)Cn2cc(F)cc(c2=O)[C@H]2CCCN2c2ccn3ncc1c3n2`: under “from N—((S)-3-chloro-2-hydroxypropyl)-5-4R)-2-(5-fluoro-2-oxo-1,2-dihydropyridin-3-yl)pyrrolidin-1-yl)pyrazolo[1,5-a]pyrimidine-3-carboxamide hydrochloride, other bond, […]”, the ring closure, isolated yield came out at 12%.
On to `O=C1NC[C@H](O)COc2ccc(F)cc2C2CC(F)(F)CN2c2ccn3ncc1c3n2` (single isomer, unassigned; diastereomer 1), for which the ring closure, isolated yield under setting [1] amounted to 20%.
`O=C1NC[C@H](O)COc2ccc(F)cc2C2CC(F)(F)CN2c2ccn3ncc1c3n2` (single isomer, unassigned; diastereomer 2) displayed a ring closure, isolated yield under setting [1] of 24%.

(Values after patent US9902741.)
